Legend:
pH stability for 1 h = format: physicochemical; details: pH range
Procedure: (§1) The gamma-butyrobetainyl chloride thus obtained is suitable for the synthesis of gamma-butyrobetainyl-coenzyme A. Coenzyme A is first suspended in an iced mixture of 1M of sodium bicarbonate at pH 7.5-9.5 (preferably pH 8.5). To this is added a definite amount of gamma-butyrobetainyl chloride (preferably in excess) keeping the pH values under control. After 15-30 minutes the reaction is complete. The formation of gamma-butyrobetainyl-coenzyme A is checked by HPLC (Spherisorb, C18 column) and finally subjected to a further purification stage (ion-exchange chromatography on DOWEX 50). The purity is checked again by HPLC (Spherisorb, C18 column). The physicochemical properties were determined on the washed product (see following table).
as §1, with “crotonobetainyl” for “gamma-butyrobetainyl”, “crotonobetainyl-coenzyme” for “gamma-butyrobetainyl-coenzyme”, “The purity is checked again by HPLC (Spherisorb, C18 column).” left out

Solubility = format: physicochemical; details: solvent in which soluble
Procedure: as §1
as §1, with “crotonobetainyl” for “gamma-butyrobetainyl”, “crotonobetainyl-coenzyme” for “gamma-butyrobetainyl-coenzyme”, “The purity is checked again by HPLC (Spherisorb, C18 column).” left out

[1] = biological target: T1, L(−)-carnitine dehydratase (Escherichia coli, UniProt P31572); test: L(−)-carnitine dehydratase activation test (formation of L(−)-carnitine from crotonobetaine); format: biochemical; details: 0.002 μmol cofactor, 10 min at 37° C.
T1 construct: partly concentrated L(−)-carnitine dehydratase (without factor F showing any activity)
Procedure: (§2) For the L(−)-carnitine dehydratase activation test according to the invention purified gamma-butyrobetainyl-coenzyme A is supplied (preferably 1-10 nmol) on potassium phosphate buffer (10 mM pH 7.5), which is added with partly concentrated L(−)-carnitine dehydratase (without factor F showing any activity) and the crotonobetaine solution to be metabolized (1M) and incubated at 37° C.
(§3) The L(−)-carnitine formed was subsequently tested with an optical test with the aid of carnitine acetyltransferase (according to BERGMEYER (1970)). A similar procedure was adopted in the racemization reaction test, in which a solution of D(+)-carnitine (1M) was added in the place of crotonobetaine. The L(−)-carnitine formed can be determined exactly by prior testing of the system with known solutions of L(−)-carnitine.
as §2, with “crotonobetainyl-coenzyme” for “gamma-butyrobetainyl-coenzyme”
Formation of L(−)-carnitine from crotonobetaine by means of concentrated L(−)-carnitine dehydratase and gamma-butyrobetainyl-coenzyme A (BB-CoA) after 10 minutes' incubation at 37° C. on potassium phosphate buffer (10 mM, pH 7.5).
Formation of L(−)-carnitine from crotonobetaine by means of concentrated L(−)-carnitine dehydratase and crotonobetainyl-coenzyme A (CB-CoA) after 10 minutes' incubation at 37° C. on potassium phosphate buffer (10 mM, pH 7.5).

[2] = system: system of racemization of carnitine; test: Racemization reaction test (formation of L(−)-carnitine from D(+)-carnitine); format: biochemical; details: 0.002 μmol cofactor, 10 min at 37° C.
Procedure: as §3
Formation of L(−)-carnitine from D(+)-carnitine by means of a system of racemization of carnitine and gamma-butyrobetainyl-coenzyme A (BB-CoA) after 10 minutes' incubation at 37° C. on potassium phosphate buffer (10 mM, pH 7.5).
Formation of L(−)-carnitine from D(+)-carnitine via a system of racemization of carnitine and crotonobetainyl-coenzyme A (CB-CoA) after 10 minutes' incubation at 37° C. on potassium phosphate buffer (10 mM, pH 7.5).

[3] = Temperature stability (1 h); format: physicochemical
Procedure: as §1
as §1, with “crotonobetainyl” for “gamma-butyrobetainyl”, “crotonobetainyl-coenzyme” for “gamma-butyrobetainyl-coenzyme”

[4] = 0 μg L-carnitine dehydratase (no enzyme), 20 μmol crotonobetaine, pH 7.5
[5] = 10 μg L-carnitine dehydratase, 0 μmol crotonobetaine (no substrate), pH 7.5
[6] = 10 μg L-carnitine dehydratase, 20 μmol crotonobetaine, potassium phosphate buffer 10 mM pH 7.5
[7] = 0 μg carnitine racemization system, 20 μmol substrate, pH 7.5
[8] = 30 μg carnitine racemization system, 0 μmol substrate, pH 7.5
[9] = 30 μg carnitine racemization system, 20 μmol substrate (head: Crotonobetaine, text: D(+)-carnitine), potassium phosphate buffer 10 mM pH 7.5

T1 sequence (P31572 whole entry): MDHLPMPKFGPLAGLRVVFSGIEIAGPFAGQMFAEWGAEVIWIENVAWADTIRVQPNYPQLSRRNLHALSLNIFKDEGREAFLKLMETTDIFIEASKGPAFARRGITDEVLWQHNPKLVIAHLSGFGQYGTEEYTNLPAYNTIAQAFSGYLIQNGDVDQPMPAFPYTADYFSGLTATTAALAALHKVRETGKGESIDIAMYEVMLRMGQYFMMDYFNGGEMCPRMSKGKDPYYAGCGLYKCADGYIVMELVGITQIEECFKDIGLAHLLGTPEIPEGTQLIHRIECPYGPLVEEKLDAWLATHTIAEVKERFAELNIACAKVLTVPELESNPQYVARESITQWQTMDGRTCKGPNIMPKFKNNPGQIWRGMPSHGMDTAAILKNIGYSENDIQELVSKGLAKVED

Structure (SMILES)	pH stability for 1 h (pH stability for 1 h)	Solubility (Solubility)	Carnitine synthesis [1, 4] [µmol]	Carnitine synthesis [1, 5] [µmol]	Carnitine synthesis [1, 6] [µmol]	Carnitine synthesis [2, 7] [µmol]	Carnitine synthesis [2, 8] [µmol]	Carnitine synthesis [2, 9] [µmol]	Temperature stability (1 h) ([3]; 0° C. to 90° C.)	Temperature stability (1 h) ([3]; −20° C.)	Temperature stability (1 h) ([3]; 20° C. to 60° C.)	Temperature stability (1 h) ([3]; −20° C. to 0° C.)
CC(C)(COP(=O)(O)OP(=O)(O)OC[C@H]1O[C@@H](n2cnc3c(N)ncnc32)[C@H](O)[C@@H]1OP(=O)(O)O)[C@@H](O)C(=O)NCCC(=O)NCCSC(=O)CCC[N+](C)(C)C [BB-CoA, gamma-butyrobetainyl-coenzyme A]	3-10	water	0	0	0.18	0	0	0.162	>90%: 0 °C to 90 °C	100%: −20 °C		
CC(C)(COP(=O)(O)OP(=O)(O)OC[C@H]1O[C@@H](n2cnc3c(N)ncnc32)[C@H](O)[C@@H]1OP(=O)(O)O)[C@@H](O)C(=O)NCCC(=O)NCCSC(=O)/C=C/C[N+](C)(C)C [CB-CoA, crotonobetainyl-coenzyme A]	2-10	water	0	0	0.271	0	0	0.243			75%: 20 °C to 60 °C	100%: −20 °C to 0 °C
